These results are taken from patent US4239767A, “Antimycotic diaryloxy-imidazolyl-O,N-acetals” (Bayer Aktiengesellschaft, priority 1974, dated 1980).

Values after ≈ are worked out from the molar mass of the structure shown. A value given as a limit tells only on which side of the number the result lay.

The subject of one assay is spores. Particulars: prior art / commercially available products; cited from earlier work.
The next assay relates to Cand. alb. As to the kind of experiment: in vitro series dilution test (MIC), Cand. alb. Particulars: 28° C., 24-96 hours, 10^3 germs/ml; read-out: MIC values when used against Cand. alb. The class given is cell-based. Here is the method: (§1) The in vitro test was carried out as a series dilution test. Amount inoculated: 10^3 germs/ml. The nutrient substrates used were Sabouraud's milieu d'epreuve, meat stock/glucose bouillon, malt extract agar and Francis's blood agar. The incubation temperature was 28° C. and the incubation time 24-96 hours.

Assay [1] has as its system Trich. ment. Put plainly: in vitro series dilution test (MIC), Trich. ment. The conditions noted are these: Trichophyton mentagrophytes; 28° C., 24-96 hours, 10^3 germs/ml; read-out: MIC values when used against Trich. ment. Type of assay: cell-based. How it is done: as §1
A further assay deals with Sporothrix Schenckii. Put plainly: in vitro series dilution test (MIC), Sporothrix Schenckii. The class given is cell-based. Particulars: 28° C., 24-96 hours, 10^3 germs/ml, read-out: MIC values when used against Sporothrix Schenckii. How it is done: as §1
The next assay has as its system Torulopsis glab. As to the kind of experiment: in vitro series dilution test (MIC), Torulopsis glab. Type of assay: cell-based. Particulars: 28° C., 24-96 hours, 10^3 germs/ml; read-out: MIC values when used against Torulopsis glab. How it is done: as §1
The test system of another assay is Asp. fum. As to the kind of experiment: in vitro series dilution test (MIC), Asp. fum. Type of assay: cell-based. Particulars: Aspergillus fumigatus; 28° C., 24-96 hours, 10^3 germs/ml; read-out: MIC values when used against Asp. fum. How it is done:
as §1

In assay [2] the test system is trichophytia. As to the kind of experiment: in vivo action on oral administration, trichophytia of mice. On the set-up: key: ++++: very good action = no sign of; +++: good action = very slight sign of; ++: action = slight loss of hair; +: slight action = loss of hair, squamation. The conditions noted are these: 100 mg/kg of body weight, twice daily, Control pronounced dermatophytosis. The text has this:
(§2) The table which follows summarizes in the vivo action of the preparations claimed on oral administration--for the models of candidosis of mice and trichophytia of mice--and on local administration--for the model of trichophytia of guinea-pigs.

The subject of assay [3] is trichophytia. Put plainly: in vivo action on local administration, trichophytia of guinea-pigs. On the set-up: key: ++++: very good action = no sign of; +++: good action = very slight sign of; ++: action = slight loss of hair; +: slight action = loss of hair, squamation. Particulars: 1% strength solution once a day from the 3rd to the 13th day after infection, Control pronounced dermatophytosis.
From the text: as §2

For another assay, the system named is candidosis. As to the kind of experiment: in vivo action on oral administration, candidosis of mice. Particulars: 100 mg/kg of body weight, twice daily, Control 5.
From the text: as §2

Another assay has as its system Aspergillus fum. As to the kind of experiment: sporocidal action, Aspergillus fumigatus spores. The class given is cell-based. Particulars: 10 γ of preparation/ml, 72 hours; Control 10^5 = mycelium. How it is done:
(§3) About 10^4 spores of Trich. ment. or Trich. Quinckeanum or Aspergillus fumigatus per ml are suspended in physiological NaCl solution and the stated preparations are added in concentrations of 1, 5, 10, 50 and 100 y/ml of suspending solution. The spore suspensions are incubated for 24, 48, 72, 96, 120 and 240 hours, 0.1 ml are withdrawn per concentration and per tube after the stated incubation times and spread homogeneously on malt extract Petri dishes, and the number of spores which still germinate is counted, after 48 hours' incubation time at 28° C., in comparison to untreated controls. The table which follows lists, for the individual preparations, the number of spores which still germinate after an exposure period of 72 hours at preparation concentrations of 10 γ/ml.

Assay [4] concerns Trich. ment. As to the kind of experiment: sporocidal action, Trich. ment. spores. Type of assay: cell-based, Trichophyton mentagrophytes. Particulars: 10 γ of preparation/ml, 72 hours; Control 10^5 = mycelium. How it is done: as §3

Take `COC1=CC(=O)C[C@@H](C)[C@]12Oc1c(Cl)c(OC)cc(OC)c1C2=O` [Griseofulvin]: in the assay with spores, the sporocidal activity entry is given as “not present”.
Consider `C[C@@H]1[C@H](O)[C@@H](C)/C=C/C=C/CC/C=C/C=C/C=C/C=C/C(O[C@H]2O[C@H](C)[C@@H](O)[C@H](N)[C@@H]2O)CC2O[C@](O)(CC(O)C(O)CCC(O)CC(O)CC(O)CC(=O)O[C@H]1C)CC(O)C2C(=O)O` (stereo partly drawn) [Nystatin], for which the sporocidal activity result with spores is given as “not present”.
The MIC is the lowest concentration that inhibits growth of the organism. In the case of `CC(C)(C)C(O)C(Oc1ccc(-c2ccc(Cl)cc2)cc1)n1ccnc1` (stereo not drawn) [drawing 8], the MIC in the assay on Cand. alb. is 4 µg/mL (≈ 10.8 µM); in the assay on Trich. ment. [1] it was under 1 µg/mL; in the assay on Sporothrix Schenckii, 0.1 µg/mL (≈ 0.27 µM); in the assay with Torulopsis glab. it was 4 µg/mL (≈ 10.8 µM); in the assay on Asp. fum., 2 to 4 µg/mL (≈ 5.39 to 10.8 µM).
Turning to `CC(C)(C)C(O)C(Oc1ccc(Cc2ccccc2)cc1)n1ccnc1` (stereo not drawn) [drawing 9], the MIC in the assay on Cand. alb. was 4 µg/mL (≈ 11.4 µM); in the assay with Trich. ment. [1], under 1 µg/mL; in the assay on Sporothrix Schenckii, 0.5 µg/mL (≈ 1.43 µM); with Torulopsis glab., 4 µg/mL (≈ 11.4 µM); in the assay with Asp. fum., under 1 µg/mL.
Regarding `CC(C)(C)C(O)C(Oc1ccc(S(=O)(=O)c2ccccc2)cc1)n1ccnc1` (stereo not drawn) [drawing 10], the MIC in the assay on Cand. alb. is 2 to 4 µg/mL (≈ 4.99 to 9.99 µM); with Trich. ment. [1] it was under 1 µg/mL; in the assay with Sporothrix Schenckii it was 0.5 µg/mL (≈ 1.25 µM); with Torulopsis glab., 4 µg/mL (≈ 9.99 µM); in the assay on Asp. fum., under 1 µg/mL.
Take `CC(C)(C)C(=O)C(Oc1c(Cl)cc(-c2ccc(Br)cc2)cc1Cl)n1ccnc1` (stereo not drawn) [drawing 11]: the minimum inhibitory concentration (MIC) in the assay with Cand. alb. came out at 8 µg/mL (≈ 16.6 µM); in the assay on Trich. ment. [1], 4 µg/mL (≈ 8.3 µM); in the assay on Sporothrix Schenckii it was 0.1 µg/mL (≈ 0.207 µM); in the assay on Torulopsis glab., 2 µg/mL (≈ 4.15 µM); in the assay with Asp. fum. it was 4 µg/mL (≈ 8.3 µM).
For `CC(C)(C)C(=O)C(Oc1ccc(Cc2ccccc2)cc1)n1ccnc1` (stereo not drawn) [drawing 12], the MIC with Cand. alb. is 16 µg/mL (≈ 45.9 µM); in the assay with Trich. ment. [1] it was under 1 µg/mL; in the assay on Sporothrix Schenckii, 2 µg/mL (≈ 5.74 µM); in the assay on Torulopsis glab., 4 µg/mL (≈ 11.5 µM); in the assay on Asp. fum., 2 µg/mL (≈ 5.74 µM).
On to `CC(C)(C)C(=O)C(Oc1ccc(S(=O)(=O)c2ccccc2)cc1)n1ccnc1` (stereo not drawn) [drawing 13], for which the MIC with Cand. alb. amounted to 4 µg/mL (≈ 10 µM); with Trich. ment. [1], 64 µg/mL (≈ 161 µM); in the assay on Sporothrix Schenckii, 2 µg/mL (≈ 5.02 µM); in the assay with Torulopsis glab., 2 µg/mL (≈ 5.02 µM); in the assay with Asp. fum., 1 µg/mL (≈ 2.51 µM).
Take `CC(C)(C)C(=O)C(Oc1c(Cl)cc(-c2ccc(Br)cc2)cc1Br)n1ccnc1` (stereo not drawn) [drawing 14]: the MIC was 8 µg/mL (≈ 15.2 µM) in the assay with Cand. alb.; 8 µg/mL (≈ 15.2 µM) in the assay with Trich. ment. [1]; 4 µg/mL (≈ 7.6 µM) with Sporothrix Schenckii; 4 µg/mL (≈ 7.6 µM) with Torulopsis glab.; 4 µg/mL (≈ 7.6 µM) in the assay on Asp. fum..
As to `CC(C)(C)C(O)C(Oc1ccc(-c2ccc(Cl)cc2)cc1)n1ccnc1` (stereo not drawn) [drawing 15], the “Therapeutic activity, trichophytia, oral administration” value with trichophytia [2] is on record as “+++”. For the same compound, the “Therapeutic activity, trichophytia, local application” value in the assay on trichophytia [3] is “++++”. In the assay with candidosis, the “Therapeutic activity, candidosis, % survival” value was determined as 80%.
In the same order, the values of `CC(C)(C)C(O)C(Oc1ccc(Cc2ccccc2)cc1)n1ccnc1` (stereo not drawn) [drawing 16] are “++”, “+++” and 60%.
In the same order, the values of `CC(C)(C)C(O)C(Oc1ccc(S(=O)(=O)c2ccccc2)cc1)n1ccnc1` (stereo not drawn) [drawing 17] are “++”, “+++” and 80%.
With `CC(C)(C)C(=O)C(Oc1c(Cl)cc(-c2ccc(Br)cc2)cc1Cl)n1ccnc1` (stereo not drawn) [drawing 18], the “Therapeutic activity, trichophytia, oral administration” value with trichophytia [2] was “++”. The “Therapeutic activity, trichophytia, local application” value in the assay on trichophytia [3] is on record as “+++”. For the same compound, the “Therapeutic activity, candidosis, % survival” value with candidosis was found to be 50%.
In the same order, the values of `CC(C)(C)C(=O)C(Oc1ccc(Cc2ccccc2)cc1)n1ccnc1` (stereo not drawn) [drawing 19] are “+++”, “++” and 50%.
Take `CC(C)(C)C(=O)C(Oc1ccc(S(=O)(=O)c2ccccc2)cc1)n1ccnc1` (stereo not drawn) [drawing 20]: the “Therapeutic activity, trichophytia, oral administration” value with trichophytia [2] was “++”. Besides, the “Therapeutic activity, trichophytia, local application” value in the assay with trichophytia [3] is given as “+++”. Besides, the “Therapeutic activity, candidosis, % survival” value in the assay on candidosis turned out to be 80%.
`CC(C)(C)C(=O)C(Oc1c(Cl)cc(-c2ccc(Br)cc2)cc1Br)n1ccnc1` (stereo not drawn) [drawing 21]: the “Therapeutic activity, trichophytia, oral administration” value in the assay on trichophytia [2] is listed as “+”. Moreover, in the assay with trichophytia [3], the “Therapeutic activity, trichophytia, local application” value was “++”. For the same compound, in the assay on candidosis, the “Therapeutic activity, candidosis, % survival” value is listed as 40%.
For `CC(C)(C)C(O)C(Oc1ccc(-c2ccc(Cl)cc2)cc1)n1ccnc1` (stereo not drawn) [drawing 22], in the assay on Aspergillus fum., the “Number of spores still capable of germination, Aspergillus fum.” value (“Number … Aspergillus fum.” below) is 35. Also, the “Number of spores still capable of germination, Trich. ment.” value (from here on “Number … Trich. ment.”) in the assay with Trich. ment. [4] was 80.
Turning to `CC(C)(C)C(O)C(Oc1ccc(Cc2ccccc2)cc1)n1ccnc1` (stereo not drawn) [drawing 23], the “Number … Aspergillus fum.” value in the assay with Aspergillus fum. is recorded as 40. Besides, the “Number … Trich. ment.” value in the assay with Trich. ment. [4] came out at 110.
Consider `CC(C)(C)C(O)C(Oc1ccc(S(=O)(=O)c2ccccc2)cc1)n1ccnc1` (stereo not drawn) [drawing 24], for which, in the assay with Aspergillus fum., the “Number … Aspergillus fum.” value turned out to be 70. In addition, the “Number … Trich. ment.” value in the assay on Trich. ment. [4] came to 60.
In the same order, the values of `CC(C)(C)C(=O)C(Oc1c(Cl)cc(-c2ccc(Br)cc2)cc1Cl)n1ccnc1` (stereo not drawn) [drawing 25] are 40 and 90.
In the same order, the values of `CC(C)(C)C(=O)C(Oc1ccc(Cc2ccccc2)cc1)n1ccnc1` (stereo not drawn) [drawing 26] are 60 and 40.
In the same order, the values of `CC(C)(C)C(=O)C(Oc1ccc(S(=O)(=O)c2ccccc2)cc1)n1ccnc1` (stereo not drawn) [drawing 27] are 70 and 10^5.
Regarding `CC(C)(C)C(=O)C(Oc1c(Cl)cc(-c2ccc(Br)cc2)cc1Br)n1ccnc1` (stereo not drawn) [drawing 28], the “Number … Aspergillus fum.” value with Aspergillus fum. turned out to be 45. In addition, in the assay on Trich. ment. [4], the “Number … Trich. ment.” value amounted to 60.
